{"source": "patent US20260265771A1", "about": "“METHODS OF INCREASING THE REGENERATION EFFICIENCY IN PLANTS” (Institute of Genetics and Developmental Biology Chinese …, priority 2022, published 2026)", "key": {"[1]": {"system": "serk and sIwind1 mutant hypocotyl explants", "test": "Callus formation and shoot organogenesis of serk and sIwind1 mutant hypocotyl explants", "type": "cell-based, tomato", "settings": "1 nM REF1", "experimental": "FIG. 49—REF1-RER1 regulates regeneration through SERK co-receptors. (a) RER1 complexes with SERK1, SERK3a and SERK3b in a REF1-dependent manner. Tobacco leaves transfected with SERKs-myc and RER1-HA-Flag were treated with 100 nM REF1 before IP with anti-myc agarose. RER1 and SERKs were detected by immunoblotting with anti-Flag or anti-myc antibodies, respectively. (b and c) REF1-induced callus formation of indicated genotypes. Hypocotyl explants were cultured on CIM with or without 1 nM REF1 for 14 d before callus phenotype was scored. Shown are representative callus images (b) and quantification of the callus projection area (c). Bars, 1 mm. Data are mean±SE. n=30 hypocotyl explants. […] Hypocotyl explants were cultured on CIM for 14 d and then transferred to SIM with or without 1 nM REF1 for 21d before shoot organogenesis phenotype was scored. […] In (c), the projected area of callus was quantified by Image J. Box plots represented the distribution of projected callus area. […] In (c) and (e), data points from three biological replicates were analysed with a one-sided Kruskal-Wallis test with Holm correction, followed by post hoc Dunn's test. […]\n(a) Induction of the SIWIND1 promoter activity at the wound sites of hypocotyl explants. […] Hypocotyl explants were cultured on CIM with or without 1 nM REF1 for 14 d before callus phenotype was scored. […]"}, "[2]": {"system": "PI126944 tomatoes", "test": "Shoot regeneration of recalcitrant wild tomato PI126944", "type": "cell-based, S. peruvianum", "settings": "PI126944, 1 nM REF1 vs REF1 absent", "experimental": "(a) photos of PI126944 grown in the presence and absence of 1 nM REF1. (b) relative regeneration frequency of PI126944 grown in the presence and absence of 1 nM REF1. (c) number of hypocotyl of PI126944 grown in the presence and absence of 1 nM REF1.\n(a) Photos of P126944 tomatoes (WT, PRR transformed, RER transformed, and PRR+RER transformed, grown in presence or absence of 1 nM REF1 for 19 days. (b) relative regeneration frequency of P126944 tomatoes (WT, PRR transformed, RER transformed, and PRR+RER transformed, grown in presence or absence of 1 nM REF1 for 19 days.\nThe effect of exogenously applied REF1 in a shoot inducing growth medium was investigated in PI126944 tomatoes by growing PI126944 tomatoes in the presence and absence of 1 nM REF1.\nPI126944 tomatoes were transformed with the PRR+RER-OE construct as well as an equivalent construct only containing PRR and another construct only containing RER. Plants expressing these constructs along with a wild type control were grown in the presence or absence of REF1 for 19 days."}, "[3]": {"system": "LA1777 tomatoes", "test": "Shoot regeneration of recalcitrant wild tomato LA1777", "type": "cell-based, S. habrochaites", "settings": "LA1777, 1 nM REF1 vs REF1 absent", "experimental": "(a) photos of LA1777 grown in the presence and absence of 1 nM REF1. (b) relative regeneration frequency of LA1777 grown in the presence and absence of 1 nM REF1. (c) number of hypocotyl of LA1777 grown in the presence and absence of 1 nM REF1.\n(a) photos of control LA1777 tomatoes, PRR expressing LA1777 tomatoes, RER expressing LA1777 tomatoes, and PRR and RER expressing LA1777 tomatoes exposed to 1 nM REF1 for 25 days, or absence of REF1 (mock). (b) relative regeneration frequency of control LA1777 tomatoes, PRR expressing LA1777 tomatoes, RER expressing LA1777 tomatoes, and PRR and RER expressing LA1777 tomatoes exposed to 1 nM REF1 for 25 days, or absence of REF1 (mock).\nThe effect of exogenously applied REF1 in a shoot inducing growth medium was investigated in LA1777 tomatoes by growing LA1777 tomatoes in the presence and absence of 1 nM REF1. […] Likewise, FIG. 20B shoes that relative regeneration frequency of LA1777 was 6-fold higher when grown in the presence of REF1 compared to when REF1 was absent, similarly, the number of hypocotyl was also higher in the presence of REF1."}, "[4]": {"system": "ectodomains of RER", "sequence (as listed by the source)": "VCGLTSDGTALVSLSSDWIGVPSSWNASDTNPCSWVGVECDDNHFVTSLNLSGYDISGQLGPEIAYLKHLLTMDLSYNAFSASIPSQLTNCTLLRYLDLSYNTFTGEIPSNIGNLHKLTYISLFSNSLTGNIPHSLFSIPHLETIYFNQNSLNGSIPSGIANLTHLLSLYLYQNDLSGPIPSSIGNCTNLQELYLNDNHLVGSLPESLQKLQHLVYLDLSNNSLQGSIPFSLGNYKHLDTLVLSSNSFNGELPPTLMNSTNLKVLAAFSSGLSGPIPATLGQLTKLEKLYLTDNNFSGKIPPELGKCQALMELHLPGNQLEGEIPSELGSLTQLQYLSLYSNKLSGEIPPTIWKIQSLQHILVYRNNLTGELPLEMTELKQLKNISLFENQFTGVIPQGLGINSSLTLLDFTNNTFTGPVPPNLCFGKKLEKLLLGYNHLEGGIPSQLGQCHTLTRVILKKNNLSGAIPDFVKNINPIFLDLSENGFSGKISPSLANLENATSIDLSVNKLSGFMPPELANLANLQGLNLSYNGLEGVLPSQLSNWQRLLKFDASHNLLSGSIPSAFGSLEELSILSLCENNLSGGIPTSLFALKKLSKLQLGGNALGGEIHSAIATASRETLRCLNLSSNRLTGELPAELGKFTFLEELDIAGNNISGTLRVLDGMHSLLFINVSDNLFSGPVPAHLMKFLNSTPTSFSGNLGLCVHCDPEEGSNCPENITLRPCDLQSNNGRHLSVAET", "test": "Pull-down assay with HA-Flag-tagged RER ectodomains and biotinylated peptides", "type": "binding, tomato", "settings": "biotinylated peptide"}, "[5]": {"system": "RER", "sequence (as listed by the source)": "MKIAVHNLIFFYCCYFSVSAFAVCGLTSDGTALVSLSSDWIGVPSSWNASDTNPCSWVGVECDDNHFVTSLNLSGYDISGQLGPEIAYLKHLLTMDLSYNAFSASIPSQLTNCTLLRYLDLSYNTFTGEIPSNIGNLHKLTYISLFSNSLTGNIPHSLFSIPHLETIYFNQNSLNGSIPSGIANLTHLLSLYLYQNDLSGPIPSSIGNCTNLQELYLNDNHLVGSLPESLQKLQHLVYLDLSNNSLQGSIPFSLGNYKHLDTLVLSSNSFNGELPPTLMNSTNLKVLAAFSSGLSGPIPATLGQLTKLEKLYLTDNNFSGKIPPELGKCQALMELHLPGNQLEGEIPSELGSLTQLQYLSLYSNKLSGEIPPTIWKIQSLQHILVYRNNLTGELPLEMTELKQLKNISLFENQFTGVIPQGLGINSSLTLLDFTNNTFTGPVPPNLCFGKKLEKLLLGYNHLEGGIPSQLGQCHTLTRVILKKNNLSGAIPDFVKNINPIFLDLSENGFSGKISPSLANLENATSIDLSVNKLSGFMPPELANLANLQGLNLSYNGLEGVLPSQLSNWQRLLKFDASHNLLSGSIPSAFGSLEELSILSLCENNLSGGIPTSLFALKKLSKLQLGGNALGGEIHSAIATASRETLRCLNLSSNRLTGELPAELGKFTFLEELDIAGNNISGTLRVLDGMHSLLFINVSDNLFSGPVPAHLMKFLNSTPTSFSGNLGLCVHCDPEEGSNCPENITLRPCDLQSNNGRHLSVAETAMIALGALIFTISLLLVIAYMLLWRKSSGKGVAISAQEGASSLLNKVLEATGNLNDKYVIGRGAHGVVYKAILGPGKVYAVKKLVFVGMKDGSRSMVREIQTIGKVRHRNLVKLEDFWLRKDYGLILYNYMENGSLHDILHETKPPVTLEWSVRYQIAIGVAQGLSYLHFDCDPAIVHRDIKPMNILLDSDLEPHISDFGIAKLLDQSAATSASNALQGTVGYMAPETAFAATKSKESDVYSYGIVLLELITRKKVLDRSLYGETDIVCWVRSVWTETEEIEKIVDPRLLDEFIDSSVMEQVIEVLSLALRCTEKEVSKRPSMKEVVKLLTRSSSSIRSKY", "test": "pFRK1::LUC expression in A. thaliana protoplasts (receptor activation)", "type": "cell-based, tomato", "settings": "3 h", "quoted_text": "Data are mean±SD, n=3 repeats. […] Data are mean±SD, n=3 repeats.\nReceptor activation was tested by using FRK1 expression as a marker gene. […] Data are mean±SD, n=3 repeats. ***P<0.001 (Student's t test); ns, not significant FRK-Luciferase expression was used as a marker to test REF1 binding-mediated activation of its receptor. Based on these assay, the EC50 was calculated (half-maximal stimulation) of REF1-receptor binding as an assessment of the binding affinity of REF1 to its receptor RER."}}, "note": "Values joined by “and” are separate entries in the source; they are usually repeats but may differ in a detail not shown here. Equal entries are not always repeated. “Also recorded” adds a separate entry of the source."}
{"sequence": "ATDRRGRPPSRPKVGSGPPPQNN (listed as Solanum lycopersicum) [REF1, 23 amino acid tomato peptide cleaved from precursor PROSIPEP]", "values": [{"measurement": "rescue of compromised regenerative capacity", "setting": "[1]; sIwind1 mutants", "value": "could not be rescued"}, {"measurement": "rescue of regenerative defects (callus formation, shoot organogenesis)", "setting": "[1]; serk3a-1, serk3b-1 and serk3a-1 serk3b-1 mutants", "value": "failed to rescue"}, {"measurement": "number of hypocotyl", "setting": "[2]", "value": "higher"}, {"measurement": "relative regeneration frequency, increase", "setting": "[2]", "value": 5.5, "unit": "fold"}, {"measurement": "shoot regeneration", "setting": "[2]", "value": "greater shoot regeneration; also recorded: promotes shoot regeneration"}, {"measurement": "number of hypocotyl", "setting": "[3]", "value": "higher"}, {"measurement": "relative regeneration frequency, increase", "setting": "[3]", "value": "~ 6 fold and 6 fold"}, {"measurement": "shoot regeneration", "setting": "[3]", "value": "greater shoot regeneration; also recorded: promotes shoot regeneration"}, {"measurement": "binding to RER ectodomain (pull-down)", "setting": "[4]", "value": "binds"}, {"measurement": "binding-mediated activation of receptor RER (pFRK1::LUC expression)", "setting": "[5]; 100 nM", "value": "bound"}, {"measurement": "binding affinity of REF1 to its receptor RER", "setting": "[5]; indicated concentrations", "value": "high affinity"}]}
